# Source: article PMC9127750, “Structure-based design of CDC42 effector interaction inhibitors for the treatment of cancer” (Cell reports, 2022)
# “Also recorded” adds a separate entry of the source.
# Experiments:
# [1] = target: T1, RHOJ and PAK1-PBD interaction (Homo sapiens, UniProt Q9H4E5); test: CDC42 interaction assay (PAK1-PBD pull-down); format: cell-based; conditions: WM3248 cells; ARN22089 at 10 and 50 μM, lysates incubated with GTP; ARN12405 indicated doses (Fig S2B)
# T1 construct: endogenous in cells; host or cells: WM3248 (or WM983B) melanoma cells; PAK1 PBD beads from Cell Biolabs kit
# Method: (§1) 24 hours later the lysates from treated and untreated cells were unloaded of guanosine nucleotides and either loaded with GDP or GTPγS. […] Precipitated lysates were then immunoblotted with indicated antibodies.
# [2] = target: T2, CDC42 and PAK1-PBD interaction (Homo sapiens, UniProt P60953); test: CDC42 interaction assay (PAK1-PBD pull-down); format: cell-based; conditions: WM3248 cells; ARN22089 at 10 and 50 μM, lysates incubated with GTP; ARN12405 indicated doses (Fig S2B)
# T2 construct: endogenous in cells; host or cells: WM3248 (or WM983B) melanoma cells; PAK1 PBD beads from Cell Biolabs kit
# Method: as §1
# [3] = system: WM3248, SKMel3, A375, SW480, and SKM28; test: cells; conditions: Homo sapiens, read-out: IC50 across cancer cell lines
# Method: (§2) Cancer cell line viability assay was performed using a CellTiterGlo assay. Cells were cultured in their appropriate media and seeded in white multi-well plates. For the assays, cells were incubated with compound at 37°C overnight, and a CellTiterGlo assay was performed to quantify viable cells.
# WM3248 = test: cells; conditions: Homo sapiens, WM3248, read-out: IC50 WM3248
# Method: as §2
# SKMel28 melanoma cells = test: Cancer cell line viability assay (CellTiterGlo); format: cell-based, Human; conditions: for decrease of activity compared with the hit: SKM28 cells, versus ARN12405; for dose response in SKM28 cell lines: Figure S2F
# A375 VMT = test: Vascularized microtumor (VMT) assay; format: cell-based, Human; conditions: 2 μM
# Method: (§3) Briefly, human endothelial colony-forming cell-derived endothelial cells (ECFC-EC) are isolated from cord blood via selection for the CD31 + cell population and cultured in EGM2 medium (Lonza). […] Cancer cells and LF are cultured in DMEM (Corning) containing 10% FBS (Gemini Bio). […] To load the microfluidic device, ECFC-EC and LF (both 8 × 10^6 cells/mL) and cancer cells (2.5 × 10^6 cells/mL) were resuspended in fibrinogen solution (10 mg/mL basal medium). The cell slurry was then mixed with 1 mL thrombin (3 U/mL) to catalyze gel solidification and quickly loaded into the tissue chambers of each VMT unit. […] All cells and VMTs are cultured in a 37°C, 20% O2, 5% O2 environment.
# (§4) Fluorescence images were acquired with an Olympus IX70 inverted microscope using SPOT software (SPOT Imaging, Sterling Heights, Michigan). […] Each chamber was normalized to time 0 baseline.
# [4] = system: VMOs (vessels, no tumor cells); test: Vascularized micro-organ (VMO) assay; format: cell-based, Human; conditions: no tumor cells (Figure 4D)
# Method: as §3, §4
# T1 sequence (Q9H4E5 1-211 limits assumed): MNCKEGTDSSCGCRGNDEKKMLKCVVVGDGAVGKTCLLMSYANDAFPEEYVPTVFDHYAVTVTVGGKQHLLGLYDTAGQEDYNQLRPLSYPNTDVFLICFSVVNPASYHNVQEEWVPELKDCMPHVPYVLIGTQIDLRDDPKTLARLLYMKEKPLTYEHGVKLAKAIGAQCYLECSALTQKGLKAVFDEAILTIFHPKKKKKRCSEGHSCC
# T2 sequence (P60953 1-188 limits assumed): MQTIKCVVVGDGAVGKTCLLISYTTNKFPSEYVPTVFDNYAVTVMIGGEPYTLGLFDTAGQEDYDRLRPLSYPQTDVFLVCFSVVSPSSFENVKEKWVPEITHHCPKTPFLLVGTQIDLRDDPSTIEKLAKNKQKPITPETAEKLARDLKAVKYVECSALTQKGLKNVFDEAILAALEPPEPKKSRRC
structure (smiles),measurement,setting,value
Clc1ccc(Nc2cc(-c3ccncc3)nc(C3CCCNC3)n2)cc1 (centres unmarked) [ARN12405],inhibition of RHOJ - PAK1-PBD interaction,[1],inhibits RHOJ/CDC42-PAK interactions; also recorded: blocked the RHOJ/CDC42 PAK interaction
same,inhibition of CDC42 - PAK1-PBD interaction,[2],inhibits RHOJ/CDC42-PAK interactions; also recorded: blocked the RHOJ/CDC42 PAK interaction
Clc1ccc(Nc2cc(-c3ccccc3)nc(C3CCCNC3)n2)cc1 (centres unmarked) [ARN21698],IC50,[3],6.3 to 10.9 µM
same,IC50,WM3248,8.42 µM
c1ccc(Nc2cc(-c3ccncc3)nc(C3CCCNC3)n2)cc1 (centres unmarked) [ARN21699],decrease of activity compared with the hit,SKMel28 melanoma cells,2 fold
Clc1cccc(Nc2cc(-c3ccncc3)nc(C3CCCNC3)n2)c1 (centres unmarked) [ARN21700],decrease of activity compared with the hit,SKMel28 melanoma cells,2 fold
same,IC50,WM3248,30.9 µM
"COc1ccc(Nc2cc(-c3ccccc3)nc(C3CCOCC3)n2)cc1 [ARN22162, N-(4-methoxyphenyl)-6-phenyl-2-tetrahydropyran-4-yl-pyrimidin-4-amine]",dose response in SKM28 cell lines,SKMel28 melanoma cells,no dose response
"CN(C)c1ccc(Nc2cc(-c3ccccc3)nc(C3CCOCC3)n2)cc1 [ARN22163, N4,N4-dimethyl-N1-(6-phenyl-2-tetrahydropyran-4-yl-pyrimidin-4-yl)benzene-1,4-diamine]",dose response in SKM28 cell lines,SKMel28 melanoma cells,no dose response
CCn1c(=O)c(-c2ccc(-c3cncs3)cc2Cl)cc2cnc(Nc3ccc(N4CCN(C)CC4)cc3)nc21 [FRAX597],growth of A375 cells and blood vessels in VMT,A375 VMT,did not significantly inhibit
Cc1ccc(F)c(NC(=O)Nc2ccc(-c3cccc4[nH]nc(N)c34)cc2)c1 [linifanib],vessel growth / angiogenesis in VMOs,[4],did inhibit angiogenesis
